{"source": "patent US20190231795A1", "about": "“METHODS FOR TREATING CANCER AND PREDICTING DRUG RESPONSIVENESS IN CANCER PATIENTS” (LiPlasome Pharma ApS, priority 2018, published 2019)", "origin": "cited, not measured here", "key": {"[1]": {"tested_on": "DNA platinum adducts (GG-Pt) in tumor tissue", "conditions": "comparison value"}}, "data": [{"smiles": "N.N.[Cl][Pt][Cl]", "note": "[conventional cisplatin, cisplatin]", "values": [{"measurement": "increase of DNA-platinum (GG-Pt) in tumor tissue seen with conventional cisplatin", "setting": "[1]", "value": "4-6 fold"}, {"measurement": "response rate", "setting": "metastatic breast cancer", "value": 10, "unit": "%"}]}]}
